Data from the NIST ThermoML archive (doi:10.1021/je900597n).
“And” between values parts separate entries of the source, which are not always exact repeats. Equal values may be shown once.

Columns and labels:
[1] = xn = mol fraction of the nth substance listed; conditions: 101 kPa, Liquid
[2] = 101 kPa, Liquid; for speed of sound: Pulse-echo method

COC(C)(C)C [2-methoxy-2-methylpropane] + CCCN
[1], x1 = 1
Conditions | mass density [kg/m3] | speed of sound [m/s]
288.15 K | 747.273 | 1086.6
293.15 K | 742.072 | 1063.4
298.15 K | 736.826 | 1040.3
303.15 K | 731.532 | 1017.4
308.15 K | 726.185 | 994.68

CCCN [propan-1-amine] + COC(C)(C)C
[1]
Conditions | mass density, 288.15 K [kg/m3] | mass density, 293.15 K [kg/m3] | mass density, 298.15 K [kg/m3] | mass density, 303.15 K [kg/m3] | mass density, 308.15 K [kg/m3] | speed of sound, 288.15 K [m/s] | speed of sound, 293.15 K [m/s] | speed of sound, 298.15 K [m/s] | speed of sound, 303.15 K [m/s] | speed of sound, 308.15 K [m/s]
x2 = 0 | 725.08 | 719.859 | 714.586 | 709.269 | 703.911 | 1266.1 | 1242 | 1218 | 1194 | 1169.9
x2 = 0.0709 | 727.856 | 722.621 | 717.583 | 712.014 | 706.643 | 1251.4 | 1227.2 | 1203.1 | 1179.1 | 1155.3
x2 = 0.0971 | 729.03 | 723.784 | 718.729 | 713.152 | 707.762 | 1244 | 1220 | 1196 | 1172.2 | 1148.2
x2 = 0.2112 | 733 | 727.745 | 722.617 | 717.065 | 711.678 | 1214.4 | 1190.5 | 1166.5 | 1142.9 | 1119.1
x2 = 0.2915 | 734.914 | 729.567 | 724.408 | 718.869 | 713.452 | 1204.2 | 1180.3 | 1156.2 | 1132.6 | 1109
x2 = 0.3956 | 737.188 | 731.938 | 726.763 | 721.277 | 715.895 | 1174.4 | 1150.7 | 1127 | 1103.4 | 1079.8
x2 = 0.5551 | 740.109 | 734.863 | 729.642 | 724.214 | 718.801 | 1146 | 1122.5 | 1098.9 | 1075.4 | 1052.2
x2 = 0.7171 | 742.564 | 737.327 | 732.071 | 726.691 | 721.338 | 1120.6 | 1097.1 | 1073.7 | 1050.5 | 1027.3
x2 = 0.7747 | 743.456 | 738.22 | 732.941 | 727.578 | 722.269 | 1111.6 | 1088 | 1064.5 | 1041 | 1017.8
x2 = 0.8604 | 744.503 | 739.27 | 733.994 | 728.673 | 723.302 | 1101.2 | 1077.8 | 1054.2 | 1030.9 | 1007.5
x2 = 0.9268 | 745.6 | 740.382 | 735.117 | 729.806 | 724.452 | 1094.2 | 1070.7 | 1047.5 | 1024.2 | 1001.1

COC(C)(C)C [2-methoxy-2-methylpropane] + CCCNCCC
[1], Pulse-echo method, x1 = 1
Conditions | speed of sound [m/s]
288.15 K | 1086.9
293.15 K | 1063.4
298.15 K | 1040.3
303.15 K | 1017.4
308.15 K | 994.68

[1], x1 = 1
Conditions | mass density [kg/m3]
288.15 K | 747.273
293.15 K | 742.072
298.15 K | 736.826
303.15 K | 731.532
308.15 K | 726.185

CCCNCCC [dipropylamine]
[2]
Conditions | mass density [kg/m3] | speed of sound [m/s]
288.15 K | 745.064 | 1235.1
293.15 K | 740.501 | 1213.4
298.15 K | 735.924 | 1191.9
303.15 K | 731.333 | 1170.4
308.15 K | 726.732 | 1149

CCCN [propan-1-amine]
[2]
Conditions | mass density [kg/m3] | speed of sound [m/s]
288.15 K | 725.08 | 1266.1
293.15 K | 719.859 | 1242
298.15 K | 714.586 | 1218
303.15 K | 709.269 | 1194
308.15 K | 703.911 | 1169.9

COC(C)(C)C [2-methoxy-2-methylpropane]
[2]
Conditions | mass density [kg/m3] | speed of sound
288.15 K | 747.273 | 1086.6 m/s and 1086.9 m/s
293.15 K | 742.072 | 1063.4 m/s
298.15 K | 736.826 | 1040.3 m/s
303.15 K | 731.532 | 1017.4 m/s
308.15 K | 726.185 | 994.68 m/s
